Laboratory results: PubChem BioAssay (NCI)
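96-well plates; 48 h exposure; 5 concentrations. Endpoints by linear interpolation between flanking doses. Not reached: highest tested concentration assigned. GI50 = concentration required for 50% inhibition of growth. Definition used: TGI = concentration required for complete inhibition of growth.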

Columns and labels:
Test in all cases: NCI-60 cell line screen, 48 h
[1] = test system: T-47D breast
[2] = test system: NCI-H460 lung
[3] = test system: CAKI-1 renal
[4] = test system: A498 renal
[5] = test system: LOX IMVI melanoma
[6] = test system: SNB-75 CNS
[7] = test system: SW-620 colon
[8] = test system: A549 NSCLC
[9] = test system: NCI/ADR-RES ovarian
[10] = test system: SK-OV-3 ovarian
[11] = test system: RXF 393 renal
[12] = test system: IGROV1 ovarian
[13] = test system: HOP-62 NSCLC
[14] = test system: ACHN renal
[15] = test system: TK-10 renal
[16] = test system: U251 CNS
[17] = test system: UACC-257 melanoma
[18] = test system: HT29 colon
[19] = test system: SK-MEL-5 melanoma
[20] = test system: HCC-2998 colon
[21] = test system: DU-145 prostate
[22] = test system: HCT-15 colon
[23] = test system: SF-268 CNS
[24] = test system: MDA-MB-435
[25] = test system: NCI-H226 lung
[26] = test system: NCI-H23 lung
[27] = test system: OVCAR-4 ovarian
[28] = test system: SF-539 CNS
[29] = test system: SF-295 CNS
[30] = test system: OVCAR-5 ovarian
[31] = test system: OVCAR-8 ovarian
[32] = test system: SK-MEL-2 melanoma
[33] = test system: UO-31 renal
[34] = test system: EKVX NSCLC
[35] = test system: MCF7 breast
[36] = test system: SK-MEL-28 melanoma
[37] = test system: COLO 205 colon
[38] = test system: MALME-3M melanoma
[39] = test system: HS 578T breast
[40] = test system: KM12 colon
[41] = test system: NCI-H522 lung
[42] = test system: OVCAR-3 ovarian

For `C[C@@H]1CCN(C(=O)CC#N)C[C@@H]1N(C)c1ncnc2[nH]ccc12`, the GI50 [1] was over 100 µM, the TGI [1] was over 100 µM and the GI50 [2] was over 100 µM. For the same compound, the TGI [2] was over 100 µM, the GI50 [3] was 42.1 µM and the TGI [3] was over 100 µM. The GI50 [4] was 23.3 µM, the TGI [4] was over 100 µM and the GI50 [5] was over 100 µM. It also gave a TGI [5] of over 100 µM, a GI50 [6] of 12.9 µM and a TGI [6] of 84.5 µM. The GI50 [7] was over 100 µM, the TGI [7] was over 100 µM and the GI50 [8] was over 100 µM. The TGI [8] was over 100 µM, the GI50 [9] was over 100 µM and the TGI [9] was over 100 µM. For the same compound, the GI50 [10] was 90.9 µM, the TGI [10] was over 100 µM and the GI50 [11] was 16.3 µM. For the same compound, the TGI [11] was 85.3 µM, the GI50 [12] was 65.8 µM and the TGI [12] was over 100 µM. The GI50 [13] was 40.6 µM, the TGI [13] was over 100 µM and the GI50 [14] was 57.2 µM. The TGI [14] was over 100 µM, the GI50 [15] was 38.1 µM and the TGI [15] was over 100 µM. For the same compound, the GI50 [16] was over 100 µM, the TGI [16] was over 100 µM and the GI50 [17] was over 100 µM. It also gave a TGI [17] of over 100 µM, a GI50 [18] of over 100 µM and a TGI [18] of over 100 µM. For the same compound, the GI50 [19] was over 100 µM, the TGI [19] was over 100 µM and the GI50 [20] was over 100 µM. It also gave a TGI [20] of over 100 µM, a GI50 [21] of over 100 µM and a TGI [21] of over 100 µM. It also gave a GI50 [22] of over 100 µM, a TGI [22] of over 100 µM and a GI50 [23] of 73.1 µM. It also gave a TGI [23] of over 100 µM, a GI50 [24] of over 100 µM and a TGI [24] of over 100 µM. The GI50 [25] was 20.9 µM, the TGI [25] was over 100 µM and the GI50 [26] was over 100 µM. For the same compound, the TGI [26] was over 100 µM, the GI50 [27] was over 100 µM and the TGI [27] was over 100 µM. For the same compound, the GI50 [28] was 39.3 µM, the TGI [28] was over 100 µM and the GI50 [29] was over 100 µM. It also gave a TGI [29] of over 100 µM, a GI50 [30] of 27.4 µM and a TGI [30] of over 100 µM. For the same compound, the GI50 [31] was over 100 µM, the TGI [31] was over 100 µM and the GI50 [32] was over 100 µM. The TGI [32] was over 100 µM, the GI50 [33] was 31.3 µM and the TGI [33] was over 100 µM. For the same compound, the GI50 [34] was 17.6 µM, the TGI [34] was over 100 µM and the GI50 [35] was over 100 µM. For the same compound, the TGI [35] was over 100 µM, the GI50 [36] was 62.6 µM and the TGI [36] was over 100 µM. The GI50 [37] was over 100 µM, the TGI [37] was over 100 µM and the GI50 [38] was 82.5 µM. It also gave a TGI [38] of over 100 µM, a GI50 [39] of 30.4 µM and a TGI [39] of over 100 µM. For the same compound, the GI50 [40] was 34 µM, the TGI [40] was over 100 µM and the GI50 [41] was over 100 µM. It also gave a TGI [41] of over 100 µM, a GI50 [42] of over 100 µM and a TGI [42] of over 100 µM.
